Results published in ChEMBL document CHEMBL1201862, “PubChem BioAssay data set” (2004).
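Exposure lasted 48 hours, with cells grown in 96-well plates and compounds tested at five concentrations. Here, GI50 denotes the concentration required for 50% inhibition of growth.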 Active and inactive are the calls of the source. Rule as the data show it: active = GI50 up to about 1.1 µM and inactive = higher.

Tests used:
Experiment in all cases: NCI-60 cell line screen, 48 h
TK-10 = tested on: TK-10
NCI-H460 = tested on: NCI-H460
HOP-62 = tested on: HOP-62
U-251 = tested on: U-251
BT-549 = tested on: BT-549
MDA-MB-435 = tested on: MDA-MB-435
SR = tested on: SR
SF-539 = tested on: SF-539
KM12 = tested on: KM12
HCC 2998 = tested on: HCC 2998
RPMI-8226 = tested on: RPMI-8226
A498 = tested on: A498
ACHN = tested on: ACHN
IGROV-1 = tested on: IGROV-1
NCI/ADR-RES = tested on: NCI/ADR-RES
HOP-92 = tested on: HOP-92
EKVX = tested on: EKVX
SW-620 = tested on: SW-620
M14 = tested on: M14

SMILES	GI50 (TK-10)	GI50 (NCI-H460)	GI50 (HOP-62)	GI50 (U-251)	GI50 (BT-549)	GI50 (MDA-MB-435)	GI50 (SR)	GI50 (SF-539)	GI50 (KM12)	GI50 (HCC 2998)	GI50 (RPMI-8226)	GI50 (A498)	GI50 (ACHN)	GI50 (IGROV-1)	GI50 (NCI/ADR-RES)	GI50 (HOP-92)	GI50 (EKVX)	GI50 (SW-620)	GI50 (M14)
O=C(Oc1ccc2c(c1)CN(Cc1ccccc1)CO2)c1ccccc1	16.2 µM (inactive)	18.7 µM (inactive)	18.4 µM (inactive)	17.3 µM (inactive)	18.5 µM (inactive)	21.8 µM (inactive)	18.2 µM (inactive)	17.3 µM (inactive)	20.7 µM (inactive)	14.5 µM (inactive)	20.6 µM (inactive)	17.3 µM (inactive)	18.8 µM (inactive)	13.3 µM (inactive)	23.4 µM (inactive)	12.7 µM (inactive)	16.7 µM (inactive)	22.8 µM (inactive)	18 µM (inactive)
COC(=O)C(CCCCN)NC(C)=O.Cc1ccc(C(=O)Nc2ccc(S(=O)(=O)O)c3cc(S(=O)(=O)O)cc(S(=O)(=O)O)c23)cc1NC(=O)c1cccc(NC(=O)Nc2cccc(C(=O)Nc3cc(C(=O)Nc4ccc(S(=O)(=O)O)c5cc(S(=O)(=O)O)cc(S(=O)(=O)O)c45)ccc3C)c2)c1	–	> 50 µM (inactive)	–	> 50 µM (inactive)	> 50 µM (inactive)	> 50 µM (inactive)	> 50 µM (inactive)	> 50 µM (inactive)	> 50 µM (inactive)	> 50 µM (inactive)	> 50 µM (inactive)	> 50 µM (inactive)	> 50 µM (inactive)	–	> 50 µM (inactive)	> 50 µM (inactive)	–	> 50 µM (inactive)	> 50 µM (inactive)
C1=N\CCOCC/N=C\c2ccc(cc2)OCc2cccc(n2)COc2ccc/1cc2	> 100 µM (inactive)	> 100 µM (inactive)	> 100 µM (inactive)	> 100 µM (inactive)	> 100 µM (inactive)	> 100 µM (inactive)	> 100 µM (inactive)	> 100 µM (inactive)	> 100 µM (inactive)	–	> 100 µM (inactive)	> 100 µM (inactive)	> 100 µM (inactive)	> 100 µM (inactive)	> 100 µM (inactive)	> 100 µM (inactive)	> 100 µM (inactive)	> 100 µM (inactive)	> 100 µM (inactive)
O=c1cc(/N=N\c2ccc(Cl)c(Cl)c2)[nH]c(=O)[nH]1	1.78 µM (inactive)	2.47 µM (inactive)	6.43 µM (inactive)	1.87 µM (inactive)	2.21 µM (inactive)	6.55 µM (inactive)	0.337 µM (active)	2.61 µM (inactive)	2.26 µM (inactive)	2.45 µM (inactive)	2.14 µM (inactive)	15.3 µM (inactive)	1.62 µM (inactive)	1.57 µM (inactive)	1.85 µM (inactive)	1.59 µM (inactive)	1.6 µM (inactive)	1.86 µM (inactive)	1.93 µM (inactive)
S=C(/N=C1/NCC(CN2CCN(c3ccccc3)CC2)O1)Nc1ccccc1 (stereo not drawn)	> 100 µM (inactive)	23.3 µM (inactive)	77.3 µM (inactive)	55.3 µM (inactive)	37.5 µM (inactive)	70.8 µM (inactive)	34.6 µM (inactive)	34.4 µM (inactive)	65.2 µM (inactive)	57.9 µM (inactive)	42.3 µM (inactive)	> 100 µM (inactive)	> 100 µM (inactive)	> 100 µM (inactive)	> 100 µM (inactive)	92.3 µM (inactive)	> 100 µM (inactive)	52.7 µM (inactive)	> 100 µM (inactive)
COC(=O)/C=C(/C(=O)OC)c1c(C)c(C)c2c(C)cc(C)cc(C)c1-2	55.1 µM (inactive)	29 µM (inactive)	23 µM (inactive)	26.9 µM (inactive)	22.4 µM (inactive)	4.6 µM (inactive)	45.5 µM (inactive)	29.4 µM (inactive)	32.7 µM (inactive)	21.3 µM (inactive)	> 100 µM (inactive)	97.9 µM (inactive)	20 µM (inactive)	37.9 µM (inactive)	15.2 µM (inactive)	21.2 µM (inactive)	59.7 µM (inactive)	17.1 µM (inactive)	8.93 µM (inactive)
COC(=O)C(CCC1C=CN(S(=O)(=O)c2ccc(C)cc2)C1)/N=C/c1ccccc1 (stereo not drawn)	83.2 µM (inactive)	44.9 µM (inactive)	59.2 µM (inactive)	43.5 µM (inactive)	39.6 µM (inactive)	33.2 µM (inactive)	23.4 µM (inactive)	38.6 µM (inactive)	34.8 µM (inactive)	43.1 µM (inactive)	28.1 µM (inactive)	99.3 µM (inactive)	> 100 µM (inactive)	38.4 µM (inactive)	> 100 µM (inactive)	29.7 µM (inactive)	42.2 µM (inactive)	41.1 µM (inactive)	42.7 µM (inactive)
